IC50 data for 30 molecules are collected here from patent US8415469B2, “Compounds and methods for kinase modulation, and indications therefor” (Plexxikon Inc., priority 2005, dated 2013).

Common to all, as to format: biochemical
One test addresses T1, c-Raf-1 (Homo sapiens, UniProt P04049).
T1 construct: purchased Upstate Biotechnology
The test can be described thus: AlphaScreen kinase assay, c-Raf-1. The conditions noted are these: read-out: IC50, activity toward kinase c-Raf-1.

A further test has as its target T2, FGFR1 (Homo sapiens, UniProt P11362, C488A/C584S).
T2 construct: P1351.pET N6 BI-PTP FGFR A458-E765-X C488A, C584S; made in house; host or cells: E. coli (PTP1B co-expressed)
Kind of test: AlphaScreen kinase assay, FGFR1. The note with it: read-out: IC50, activity toward kinase FGFR.

The next test concerns the target T3, B-Raf (Homo sapiens, UniProt P15056).
T3 construct: purchased Upstate Biotechnology
Kind of test: AlphaScreen kinase assay, B-Raf. The note with it: read-out: IC50, activity toward kinase B-Raf.

A further test deals with T4, B-Raf V600E (Homo sapiens, UniProt P15056, V600E).
T4 construct: P4254. pFastBacBD-CDC37 BRAF D437-K722-X, V600E; His6 with pFastBac HT leader (TEV site) (N); made in house; host or cells: Sf9 (baculovirus; chaperone CDC37 co-expressed)
T4 sequence (P15056 with tags, fused parts or gaps V600E): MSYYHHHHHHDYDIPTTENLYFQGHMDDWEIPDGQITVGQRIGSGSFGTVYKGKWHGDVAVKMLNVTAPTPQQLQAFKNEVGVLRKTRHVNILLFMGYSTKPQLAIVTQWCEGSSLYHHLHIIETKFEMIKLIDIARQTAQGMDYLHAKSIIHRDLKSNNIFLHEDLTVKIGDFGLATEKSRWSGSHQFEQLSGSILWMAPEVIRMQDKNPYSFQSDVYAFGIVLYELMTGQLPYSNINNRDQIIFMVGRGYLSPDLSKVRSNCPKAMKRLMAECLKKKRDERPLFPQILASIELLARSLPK
The test can be described thus: AlphaScreen kinase assay, B-Raf V600E. The conditions noted are these: read-out: IC50, activity toward kinase B-Raf V600E.

A further test concerns the target T5, Fms (Homo sapiens, UniProt P07333).
T5 construct: purchased Upstate Biotechnology
The test can be described thus: AlphaScreen kinase assay, Fms. The note with it: read-out: IC50, activity toward kinase Fms. (Alpha assays give light when donor and acceptor beads are brought close together.)

A further test addresses T6, Kit (Homo sapiens, UniProt P10721).
T6 construct: P1332.N6 BI PTP KIT M552-K948-X COD; His6 (N); made in house; host or cells: E. coli (PTP1B co-expressed)
The test can be described thus: AlphaScreen kinase assay, Kit. The note with it: read-out: IC50, activity toward kinase Kit.

Broadly, the IC50 is the concentration needed to halve the response being measured.

T3 sequence (P15056 whole entry): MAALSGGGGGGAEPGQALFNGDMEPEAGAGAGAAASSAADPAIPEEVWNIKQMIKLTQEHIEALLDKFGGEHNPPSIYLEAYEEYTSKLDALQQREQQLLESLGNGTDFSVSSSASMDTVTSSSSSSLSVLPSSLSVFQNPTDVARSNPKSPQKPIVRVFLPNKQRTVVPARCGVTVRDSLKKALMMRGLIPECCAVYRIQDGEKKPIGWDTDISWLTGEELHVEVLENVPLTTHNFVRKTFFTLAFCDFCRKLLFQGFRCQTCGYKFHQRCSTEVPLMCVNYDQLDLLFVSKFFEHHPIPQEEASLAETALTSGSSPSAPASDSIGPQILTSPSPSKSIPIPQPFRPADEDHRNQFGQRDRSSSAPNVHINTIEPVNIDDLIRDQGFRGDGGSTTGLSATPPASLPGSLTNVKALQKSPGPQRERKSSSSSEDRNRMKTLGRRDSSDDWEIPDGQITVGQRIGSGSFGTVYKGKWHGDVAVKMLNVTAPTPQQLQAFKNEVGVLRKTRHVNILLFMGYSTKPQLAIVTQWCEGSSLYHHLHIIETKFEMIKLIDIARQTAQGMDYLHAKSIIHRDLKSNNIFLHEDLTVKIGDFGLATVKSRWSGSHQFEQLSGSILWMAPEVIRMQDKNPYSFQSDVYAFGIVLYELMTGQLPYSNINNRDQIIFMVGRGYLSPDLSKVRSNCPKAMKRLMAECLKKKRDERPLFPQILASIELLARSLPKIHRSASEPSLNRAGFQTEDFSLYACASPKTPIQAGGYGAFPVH
T6 sequence (P10721 with tags, fused parts or gaps): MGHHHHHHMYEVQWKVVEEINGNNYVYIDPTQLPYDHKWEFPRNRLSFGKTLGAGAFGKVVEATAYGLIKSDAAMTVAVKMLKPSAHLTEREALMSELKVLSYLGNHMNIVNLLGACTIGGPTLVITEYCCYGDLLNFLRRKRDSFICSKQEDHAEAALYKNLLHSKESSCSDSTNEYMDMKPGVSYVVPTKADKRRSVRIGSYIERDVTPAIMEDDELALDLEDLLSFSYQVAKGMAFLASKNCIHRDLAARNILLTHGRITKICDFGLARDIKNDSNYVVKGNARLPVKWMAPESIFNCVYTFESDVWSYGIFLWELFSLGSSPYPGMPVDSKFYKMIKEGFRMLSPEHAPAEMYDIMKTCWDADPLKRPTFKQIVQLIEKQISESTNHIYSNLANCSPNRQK
T1 sequence (P04049 whole entry): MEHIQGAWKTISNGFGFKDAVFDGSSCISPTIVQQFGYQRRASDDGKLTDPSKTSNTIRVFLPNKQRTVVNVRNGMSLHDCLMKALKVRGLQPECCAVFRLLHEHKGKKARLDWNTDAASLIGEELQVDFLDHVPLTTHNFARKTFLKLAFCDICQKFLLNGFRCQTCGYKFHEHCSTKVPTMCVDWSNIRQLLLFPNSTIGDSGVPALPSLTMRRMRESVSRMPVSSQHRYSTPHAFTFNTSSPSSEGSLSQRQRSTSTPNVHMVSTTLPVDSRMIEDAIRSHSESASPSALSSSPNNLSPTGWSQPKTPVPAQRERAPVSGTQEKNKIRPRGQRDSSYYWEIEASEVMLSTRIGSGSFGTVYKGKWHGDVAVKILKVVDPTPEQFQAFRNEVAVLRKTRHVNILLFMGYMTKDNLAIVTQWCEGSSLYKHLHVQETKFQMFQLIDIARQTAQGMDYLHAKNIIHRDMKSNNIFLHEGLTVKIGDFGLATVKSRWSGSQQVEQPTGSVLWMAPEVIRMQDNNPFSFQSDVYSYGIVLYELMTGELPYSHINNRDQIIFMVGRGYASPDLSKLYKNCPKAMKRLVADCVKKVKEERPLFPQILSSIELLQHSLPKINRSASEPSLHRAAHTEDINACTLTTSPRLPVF
T2 sequence (P11362 458-765 C488A/C584S): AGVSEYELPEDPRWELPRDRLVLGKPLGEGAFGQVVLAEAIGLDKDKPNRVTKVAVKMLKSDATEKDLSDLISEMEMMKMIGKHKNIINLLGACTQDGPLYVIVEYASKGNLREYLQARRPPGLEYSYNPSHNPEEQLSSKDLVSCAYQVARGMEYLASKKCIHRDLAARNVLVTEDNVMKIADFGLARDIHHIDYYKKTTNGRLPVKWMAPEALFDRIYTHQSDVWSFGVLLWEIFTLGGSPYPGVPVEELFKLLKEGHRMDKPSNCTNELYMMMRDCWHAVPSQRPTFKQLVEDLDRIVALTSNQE
T5 sequence (P07333 20-972): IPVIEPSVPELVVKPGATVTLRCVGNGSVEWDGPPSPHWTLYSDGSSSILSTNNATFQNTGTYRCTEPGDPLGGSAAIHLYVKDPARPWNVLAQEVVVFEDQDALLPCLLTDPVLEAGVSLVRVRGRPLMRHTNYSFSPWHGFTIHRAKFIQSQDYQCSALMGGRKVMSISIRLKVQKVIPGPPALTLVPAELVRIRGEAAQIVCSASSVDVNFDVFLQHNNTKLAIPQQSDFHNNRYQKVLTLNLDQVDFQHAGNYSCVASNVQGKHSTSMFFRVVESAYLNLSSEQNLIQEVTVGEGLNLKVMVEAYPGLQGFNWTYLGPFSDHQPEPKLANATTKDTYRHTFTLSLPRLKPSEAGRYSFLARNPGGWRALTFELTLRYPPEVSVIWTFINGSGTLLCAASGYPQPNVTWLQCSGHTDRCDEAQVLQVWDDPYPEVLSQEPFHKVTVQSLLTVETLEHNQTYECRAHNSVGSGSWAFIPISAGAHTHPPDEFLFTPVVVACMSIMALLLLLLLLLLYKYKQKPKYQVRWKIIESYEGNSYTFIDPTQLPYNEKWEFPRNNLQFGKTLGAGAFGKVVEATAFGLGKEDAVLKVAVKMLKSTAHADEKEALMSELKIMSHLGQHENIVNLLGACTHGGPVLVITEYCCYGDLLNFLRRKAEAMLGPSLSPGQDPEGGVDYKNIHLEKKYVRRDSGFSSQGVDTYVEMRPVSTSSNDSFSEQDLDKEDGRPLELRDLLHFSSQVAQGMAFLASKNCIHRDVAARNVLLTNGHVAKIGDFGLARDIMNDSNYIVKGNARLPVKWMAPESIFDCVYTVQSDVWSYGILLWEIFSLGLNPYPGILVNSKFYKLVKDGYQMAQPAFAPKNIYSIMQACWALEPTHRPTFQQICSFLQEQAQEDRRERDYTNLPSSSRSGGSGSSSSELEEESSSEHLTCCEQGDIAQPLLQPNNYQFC

Take `CCCNS(=O)(=O)c1ccc(OC)c(C(=O)c2c[nH]c3ncc(-c4cccnc4)cc23)c1F` [Compound P-1078]: the IC50 on c-Raf-1 and on FGFR1 was at most 10 µM throughout.
For the molecule `CCOc1cccc(Nc2ccnc3[nH]ccc23)c1` [Compound P-1076], the IC50 at B-Raf and on c-Raf-1 was at most 10 µM each time.
On to `CCCCOc1ccc(S(=O)(=O)Nc2ccc(F)c(C(=O)c3c[nH]c4ncccc34)c2F)cc1` [Compound P-1006, 4-Butoxy-N-[2,4-difluoro-3-(1H-pyrrolo[2,3-b]pyridine-3-carbonyl)-phenyl]-benzenesulfonamide], for which the IC50 on B-Raf, on c-Raf-1 and at B-Raf V600E was at most 10 µM throughout.
With `O=S(=O)(Nc1ccc(F)c(C(O)c2c[nH]c3ncc(Br)cc23)c1F)c1ccccc1` (stereo not shown) [Compound P-0959], the IC50 on B-Raf, at c-Raf-1 and on B-Raf V600E was at most 10 µM in each case.
On to `COC(c1ccc(N(Cc2ccc(Cl)cc2)C(=O)OC(C)(C)C)nc1)c1c[nH]c2ncc(Br)cc12` (stereo not shown) [Compound P-0779], for which the IC50 on B-Raf, at c-Raf-1 and at B-Raf V600E was at most 10 µM in each case.
`CC(=O)Nc1cccc(Nc2ccnc3[nH]ccc23)c1` [Compound P-0941]: the IC50 on B-Raf and on c-Raf-1 was at most 10 µM each time.
For the molecule `CCCS(=O)(=O)Nc1ccc(F)c(C(O)c2c[nH]c3ncc(OC)cc23)c1F` (stereo not shown) [Compound P-1243, Propane-1-sulfonic acid {2,4-difluoro-3-[hydroxy-(5-methoxy-1H-pyrrolo[2,3-b]pyridin-3-yl)-methyl]-phenyl}-amide], the IC50 at B-Raf, at c-Raf-1 and at B-Raf V600E was at most 10 µM each time.
For `CCC(C(=O)c1c[nH]c2ncccc12)S(=O)(=O)Nc1cc(F)cc(F)c1` (stereo not shown) [Compound P-1070], the IC50 on c-Raf-1 and on B-Raf V600E was at most 10 µM throughout.
Take `c1ccc2cc(Nc3ccnc4[nH]ccc34)ccc2c1` [Compound P-0975]: the half-inhibitory concentration (IC50) at B-Raf and at c-Raf-1 was at most 10 µM throughout.
On to `Clc1cnc2[nH]ccc2c1` [Compound P-1063], for which the IC50 at c-Raf-1 and on B-Raf V600E was at most 10 µM in each case.
`O=C(Nc1ccc(F)c(C(=O)c2c[nH]c3ncccc23)c1F)OCc1ccccc1` [Compound P-0894, [2,4-Difluoro-3-(1H-pyrrolo[2,3-b]pyridine-3-carbonyl)-phenyl]-carbamic acid benzyl ester]: the IC50 on B-Raf, on c-Raf-1, at B-Raf V600E and on FGFR1 was at most 10 µM in each case.
With `Fc1cnc2[nH]ccc2c1` [Compound P-1061], the concentration for half-maximal inhibition (IC50) at c-Raf-1 and on B-Raf V600E was at most 10 µM each time.
With `Cc1nc2ccc(Nc3ccnc4[nH]ccc34)cc2s1` [Compound P-1014], the half-inhibitory concentration (IC50) on B-Raf, at c-Raf-1 and at B-Raf V600E was at most 10 µM each time.
Turning to `COc1cccc(Nc2ccnc3[nH]ccc23)c1` [Compound P-1065], the IC50 at c-Raf-1 and at B-Raf V600E was at most 10 µM in each case.
Take `COC(=O)Nc1ccc(F)c(C(=O)c2c[nH]c3ncccc23)c1F` [Compound P-0974, [2,4-Difluoro-3-(1H-pyrrolo[2,3-b]pyridine-3-carbonyl)-phenyl]-carbamic acid methyl ester]: the IC50 on c-Raf-1 and on FGFR1 was at most 10 µM each time.
In the case of `COC(c1ccc(NCc2ccc(Cl)c(C(F)(F)F)c2)nc1)c1c[nH]c2ncccc12` (stereo not shown) [Compound P-1064], the IC50 on c-Raf-1 and on B-Raf V600E was at most 10 µM in each case.
Regarding `COc1cccc(Cc2c[nH]c3ncc(Br)cc23)c1F` [Compound P-0535, 5-Bromo-3-(2-fluoro-3-methoxy-benzyl)-1H-pyrrolo[2,3-b]pyridine], the IC50 at Fms, at Kit, on c-Raf-1, on B-Raf V600E and on FGFR1 was at most 10 µM throughout.
For the molecule `O=C(c1c(F)ccc(NS(=O)(=O)c2ccc(Cl)c(Cl)c2)c1F)c1c[nH]c2ncccc12` [Compound P-1015, 3,4-Dichloro-N-[2,4-difluoro-3-(1H-pyrrolo[2,3-b]pyridine-3-carbonyl)-phenyl]-benzenesulfonamide], the IC50 at c-Raf-1, at B-Raf V600E and at FGFR1 was at most 10 µM in each case.
With `COC(c1ccc(NCc2ccc(C(F)(F)F)cc2)nc1)c1c[nH]c2ncccc12` (stereo not shown) [Compound P-0382], the half-inhibitory concentration (IC50) at B-Raf, on c-Raf-1 and on B-Raf V600E was at most 10 µM in each case.
Take `CCCS(=O)(=O)Nc1ccc(F)c(C(O)c2c[nH]c3ncc(N4CCOCC4)cc23)c1F` (stereo not shown) [Compound P-1071]: the IC50 on c-Raf-1 and at B-Raf V600E was at most 10 µM each time.
For the molecule `O=[N+]([O-])c1cccc(Nc2ccnc3[nH]ccc23)c1` [Compound P-0973], the IC50 at B-Raf and at c-Raf-1 was at most 10 µM in each case.
Consider `O=S(=O)(Nc1ccc(F)c(C(O)c2c[nH]c3ncc(F)cc23)c1F)c1ccccc1` (stereo not shown) [Compound P-1003], for which the half-inhibitory concentration (IC50) at B-Raf, at c-Raf-1 and at B-Raf V600E was at most 10 µM throughout.
On to `CCCS(=O)(=O)Nc1ccc(Cl)c(C(=O)c2c[nH]c3ncc(-c4ccccc4)cc23)c1F` [Compound P-0776, Propane-1-sulfonic acid [4-chloro-2-fluoro-3-(5-phenyl-1H-pyrrolo[2,3-b]pyridine-3-carbonyl)-phenyl]-amide], for which the IC50 on B-Raf, at Kit, on c-Raf-1, on B-Raf V600E and on FGFR1 was at most 10 µM throughout.
Turning to `CC1CCN(c2cnc3[nH]ccc3c2)CC1` [Compound P-1122], the half-maximal inhibitory concentration (IC50) at c-Raf-1 was at most 10 µM.
On to `O=C(c1cccc(OC(F)(F)F)c1)c1c[nH]c2ncc(-c3cccnc3)cc12` [Compound P-1413, (5-Pyridin-3-yl-1H-pyrrolo[2,3-b]pyridin-3-yl)-(3-trifluoromethoxy-phenyl)-methanone], for which the IC50 at Kit, on c-Raf-1 and at B-Raf V600E was at most 10 µM in each case.
For the molecule `CCCS(=O)(=O)Nc1cccc(C(=O)c2c[nH]c3ncc(F)cc23)c1F` [Compound P-1028, propane-1-sulfonic acid [2-fluoro-3-(5-fluoro-1H-pyrrolo[2,3-b]pyridine-3-carbonyl)-phenyl]-amide], the 50% inhibitory concentration (IC50) at B-Raf, at c-Raf-1 and on B-Raf V600E was at most 10 µM throughout.
Turning to `c1cc2cc(N3CCOCC3)cnc2[nH]1` [Compound P-1118], the 50% inhibitory concentration (IC50) on c-Raf-1 was at most 10 µM.
For `CCCS(=O)(=O)Nc1ccc(Cl)c(C(=O)c2c[nH]c3ncc(Cl)cc23)c1F` [Compound P-1004, Propane-1-sulfonic acid [4-chloro-3-(5-chloro-1H-pyrrolo[2,3-b]pyridine-3-carbonyl)-2-fluoro-phenyl]-amide], the IC50 at B-Raf, on c-Raf-1, at B-Raf V600E and on FGFR1 was at most 10 µM in each case.
In the case of `Fc1ccc(Nc2ccnc3[nH]ccc23)cc1F` [Compound P-0987], the IC50 at B-Raf and on c-Raf-1 was at most 10 µM in each case.
For the molecule `CCCC(=O)Nc1ccc(F)c(C(=O)c2c[nH]c3ncc(Br)cc23)c1F` [Compound P-1283], the IC50 at c-Raf-1, at B-Raf V600E and at FGFR1 was at most 10 µM each time.
